{"source": "patent US20260240797A1", "about": "“TREATMENT OF ULCERATIVE COLITIS COMPRISING VIDOFLUDIMUS OR A PHARMACEUTICALLY ACCEPTABLE SALT THEREOF” (IMMUNIC AG, priority 2022, published 2026)", "key": {"patients with UC": {"test_system": "patients with UC", "details": "12 weeks, cited from earlier work"}, "patients with CD": {"test_system": "patients with CD", "details": "12 weeks, cited from earlier work"}, "[1]": {"test_system": "patients with active rheumatoid arthritis", "details": "35 mg once-daily for 13 weeks; cited from earlier work"}, "[2]": {"test_system": "patients with inflammatory bowel disease (IBD)", "details": "35 mg oral once daily, 12 weeks; cited from earlier work"}, "[3]": {"test_system": "patients with moderate-to-severe ulcerative colitis", "test": "CALDOSE-1 phase 2 trial, maintenance phase efficacy (Week 50)", "assay_type": "in vivo, human", "details": "for Clinical Remission Rate at Week 50 (steroid-free): Modified Full Analysis Set MP; for Number of Patients with Clinical Remission at Week 50 (steroid-free): Modified Full Analysis Set MP (corticosteroids during induction)"}, "[4]": {"test_system": "patients with moderate-to-severe ulcerative colitis", "test": "CALDOSE-1 phase 2 trial (NCT03341962), induction phase efficacy", "assay_type": "in vivo, human", "details": "for Odds Ratio Estimate to achieve clinical remission versus placebo: active treatment groups of 30/45 mg, multivariate logistical regression"}, "[5]": {"test_system": "secretion of IL-17 and IFNγ", "details": "in vitro; cited from earlier work"}, "[6]": {"test_system": "T-lymphocyte proliferation", "details": "in vitro; cited from earlier work"}, "human DHODH": {"target": "human DHODH (Homo sapiens, UniProt Q02127)", "sequence (Q02127 whole entry)": "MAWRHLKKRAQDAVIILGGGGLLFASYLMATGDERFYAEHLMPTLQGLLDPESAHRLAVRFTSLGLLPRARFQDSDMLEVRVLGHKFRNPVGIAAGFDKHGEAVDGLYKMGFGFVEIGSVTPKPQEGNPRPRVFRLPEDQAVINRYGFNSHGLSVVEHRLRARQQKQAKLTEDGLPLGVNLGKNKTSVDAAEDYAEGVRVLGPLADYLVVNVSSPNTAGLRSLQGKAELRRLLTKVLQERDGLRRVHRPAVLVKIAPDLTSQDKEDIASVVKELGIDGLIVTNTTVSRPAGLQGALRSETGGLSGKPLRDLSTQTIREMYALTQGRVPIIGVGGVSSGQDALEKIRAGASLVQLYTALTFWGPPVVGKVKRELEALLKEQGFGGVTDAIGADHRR", "details": "cited from earlier work"}, "[7]": {"details": "in vivo; cited from earlier work"}, "[8]": {"test_system": "patients with relapsing remitting MS (rrMS)", "details": "cited from earlier work"}, "[9]": {"test_system": "patients with moderate-to-severe ulcerative colitis", "test": "CALDOSE-1 phase 2 trial, safety and tolerability", "assay_type": "in vivo, human", "details": "for Incidence of TEAEs of Special Interest: red blood cells urine positive, hematuria or retroperitoneal pain"}}, "note": "Counter-ions that a name gives are not always drawn.", "data": [{"smiles": "COc1cccc(-c2ccc(NC(=O)C3=C(C(=O)O)CCC3)c(F)c2)c1", "note": "[Vidofludimus, 2-((3-fluoro-3′-methoxy-[1,1′-biphenyl]-4-yl)carbamoyl)cyclopent-1-enecarboxylic acid]", "values": [{"measurement": "number of partial responders", "setting": "patients with UC; 35 mg oral once daily", "value": 5}, {"measurement": "partial responders", "setting": "patients with UC; 35 mg oral once daily", "value": 42, "unit": "%"}, {"measurement": "patients in steroid-free remission (complete responders)", "setting": "patients with UC; 35 mg oral once daily", "value": 50, "unit": "%"}, {"measurement": "number of patients in steroid-free remission (complete responders)", "setting": "patients with UC; out of 12, 35 mg oral once daily", "value": 6}, {"measurement": "number of partial responders", "setting": "patients with CD; 35 mg oral once daily", "value": 4}, {"measurement": "partial responders", "setting": "patients with CD; 35 mg oral once daily", "value": 29, "unit": "%"}, {"measurement": "patients in steroid-free remission (complete responders)", "setting": "patients with CD; 35 mg oral once daily", "value": 57, "unit": "%"}, {"measurement": "number of patients in steroid-free remission (complete responders)", "setting": "patients with CD; out of 14, 35 mg oral once daily", "value": 8}, {"measurement": "diarrhoea, alopecia, neutropenia or liver enzyme elevations", "setting": "[1]", "value": "no notable increases"}, {"measurement": "safety profile compared to placebo", "setting": "[1]", "value": "overall similar safety profile as compared to placebo"}, {"measurement": "tolerability / drug-related serious adverse events", "setting": "[2]", "value": "well tolerated and no drug-related serious adverse events were observed"}]}, {"smiles": "COc1cccc(-c2ccc(NC(=O)C3=C(C(=O)O)CCC3)c(F)c2)c1", "note": "[IMU-838, 1-cyclopentene-1-carboxylic acid, 2-(((3-fluoro-3′-methoxy(1,1′-biphenyl)-4-yl)amino)carbonyl)-, calcium salt (2:1)]", "values": [{"measurement": "Clinical Remission Rate at Week 50 (steroid-free)", "setting": "[3]; 10 mg", "value": 38.5, "unit": "%"}, {"measurement": "Number of Patients with Clinical Remission at Week 50 (steroid-free)", "setting": "[3]; 10 mg, N10 = 22", "value": 5}, {"measurement": "Mean time to symptomatic UC relapse", "setting": "[3]; 10 mg, N = 45", "value": 231.7, "unit": "days"}, {"measurement": "Clinical Remission Rate at Week 50", "setting": "[3]; 10 mg, n = 26/35", "value": 42.3, "unit": "%"}, {"measurement": "Number of Patients with Clinical Remission at Week 50", "setting": "[3]; 10 mg, n = 26/35 evaluated/total", "value": 11}, {"measurement": "Endoscopic Healing Rate at Week 50", "setting": "[3]; 10 mg, n = 28/35", "value": 53.6, "unit": "%"}, {"measurement": "Number of Patients Meeting Endpoint (Endoscopic Healing at Week 50)", "setting": "[3]; 10 mg, n = 28/35", "value": 15}, {"measurement": "delta (Δ) vs placebo in clinical remission at Week 50", "setting": "[3]; 30 mg, 95% CI 3.2%-59.3%", "value": 33.8, "unit": "%"}, {"measurement": "Clinical Remission Rate at Week 50 (steroid-free)", "setting": "[3]; 30 mg", "value": 66.7, "unit": "%"}, {"measurement": "Number of Patients with Clinical Remission at Week 50 (steroid-free)", "setting": "[3]; 30 mg, N30 = 22", "value": 8}, {"measurement": "Mean time to symptomatic UC relapse", "setting": "[3]; 30 mg, N = 40", "value": 221.9, "unit": "days"}, {"measurement": "Clinical Remission Rate at Week 50", "setting": "[3]; 30 mg, n = 26/29", "value": 61.5, "unit": "%"}, {"measurement": "Endoscopic Healing Rate at Week 50", "setting": "[3]; 30 mg, n = 26/29", "value": 73.1, "unit": "%"}, {"measurement": "Number of Patients Meeting Endpoint (Endoscopic Healing at Week 50)", "setting": "[3]; 30 mg, n = 26/29", "value": 19}, {"measurement": "Number of Patients with Clinical Remission at Week 50", "setting": "[3]; 30 mg, n = 26/29 evaluated/total", "value": 16}, {"measurement": "odds ratio (30 mg IMU-838/Placebo) for clinical remission at Week 50", "setting": "[3]; 30 mg, two-sided Pearson's chi-square p=0.0358", "value": 4.16}, {"measurement": "clinical remission at week 10", "setting": "[4]; 10 mg/day, overall intent-to-treat patient population", "value": 14.9, "unit": "%"}, {"measurement": "clinical remission at week 10", "setting": "[4]; 30 mg/day, overall intent-to-treat patient population", "value": 10.6, "unit": "%"}, {"measurement": "clinical remission at week 10", "setting": "[4]; 45 mg/day, overall intent-to-treat patient population", "value": 13.6, "unit": "%"}, {"measurement": "Odds Ratio Estimate to achieve clinical remission versus placebo", "setting": "[4]; with concomitant steroids", "value": 0.58}, {"measurement": "Odds Ratio Estimate to achieve clinical remission versus placebo", "setting": "[4]; without concomitant steroids", "value": 3.53}, {"measurement": "rate of clinical remission at week 10", "setting": "[4]; patients concomitantly taking corticosteroids during induction treatment", "value": 11.5, "unit": "%"}, {"measurement": "clinical remission (primary endpoint) at Week 10", "setting": "[4]; pooled 30 and 45 mg, Full Analysis Set, n=16 missing data", "value": 13.8, "unit": "%"}, {"measurement": "patients with clinical remission (primary endpoint) at Week 10", "setting": "[4]; pooled 30 and 45 mg, Full Analysis Set, of 116 evaluated", "value": 16}, {"measurement": "advantage in clinical remission over placebo", "setting": "[4]; pooled treatment groups at week 10, non-steroid patient population", "value": 11.4, "unit": "%"}, {"measurement": "clinical remission at week 10", "setting": "[4]; pooled treatment groups, non-steroid patient population (no concurrent corticosteroids)", "value": 14.7, "unit": "%"}, {"measurement": "secretion of IL-17 and IFNγ", "setting": "[5]", "value": "inhibited"}, {"measurement": "T-lymphocyte proliferation", "setting": "[6]", "value": "inhibited"}, {"measurement": "potency against human DHODH", "setting": "human DHODH", "value": "submicromolar potency"}, {"measurement": "half-life", "setting": "[7]", "value": "approximately 30 h"}, {"measurement": "safety profile", "setting": "[8]; 30 mg and 45 mg doses", "value": "favorable safety profile"}, {"measurement": "suppression of MRI activity", "setting": "[8]; 30 mg dose, 24-weeks of treatment", "value": 70, "unit": "%"}, {"measurement": "safety and tolerability", "setting": "[9]; induction phase, 10, 30, 45 mg/day", "value": "safe and well-tolerated"}, {"measurement": "Incidence of Liver TEAEs", "setting": "[9]; maintenance phase, 10 mg", "value": 2.2, "unit": "%"}, {"measurement": "Incidence of Renal TEAEs", "setting": "[9]; maintenance phase, 10 mg", "value": 2.2, "unit": "%"}, {"measurement": "Incidence of Serious TEAEs", "setting": "[9]; maintenance phase, 10 mg", "value": 6.7, "unit": "%"}, {"measurement": "Incidence of TEAEs", "setting": "[9]; maintenance phase, 10 mg, N10 = 45", "value": 35.6, "unit": "%"}, {"measurement": "Incidence of TEAEs of Special Interest", "setting": "[9]; maintenance phase, 10 mg", "value": 0.0, "unit": "%"}, {"measurement": "Incidence of Liver TEAEs", "setting": "[9]; maintenance phase, 30 mg", "value": 0.0}, {"measurement": "Incidence of Renal TEAEs", "setting": "[9]; maintenance phase, 30 mg", "value": 5, "unit": "%"}, {"measurement": "Incidence of Serious TEAEs", "setting": "[9]; maintenance phase, 30 mg", "value": 5, "unit": "%"}, {"measurement": "Incidence of TEAEs", "setting": "[9]; maintenance phase, 30 mg, N30 = 40", "value": 40, "unit": "%"}, {"measurement": "Incidence of TEAEs of Special Interest", "setting": "[9]; maintenance phase, 30 mg", "value": 5, "unit": "%"}, {"measurement": "safety and tolerability", "setting": "[9]; maintenance phase, 10 and 30 mg", "value": "safe and well tolerated"}]}]}
